# Source: PubChem BioAssay (NCI)
#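 Following 48 hours of exposure in 96-well plates, responses at five concentrations were used to interpolate endpoints linearly. TGI: concentration producing complete growth inhibition.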
# Legend:
# Test in all cases: NCI tumour cell line growth inhibition, 48 h
# CAKI-1 renal = test system: CAKI-1 renal
# SNB-75 CNS = test system: SNB-75 CNS
# HOP-62 NSCLC = test system: HOP-62 NSCLC
# HL-60(TB) leukemia = test system: HL-60(TB) leukemia
# RXF 393 renal = test system: RXF 393 renal
# COLO 205 colon = test system: COLO 205 colon
# OVCAR-3 ovarian = test system: OVCAR-3 ovarian
# 786-0 renal = test system: 786-0 renal
# A549 NSCLC = test system: A549 NSCLC
# DU-145 prostate = test system: DU-145 prostate
# HS 578T breast = test system: HS 578T breast
# NCI-H460 lung = test system: NCI-H460 lung
# IGROV1 ovarian = test system: IGROV1 ovarian
# LOX IMVI melanoma = test system: LOX IMVI melanoma
# MALME-3M melanoma = test system: MALME-3M melanoma
# CCRF-CEM leukemia = test system: CCRF-CEM leukemia
# NCI-H522 lung = test system: NCI-H522 lung
# OVCAR-8 ovarian = test system: OVCAR-8 ovarian
# MDA-N = test system: MDA-N
# OVCAR-4 ovarian = test system: OVCAR-4 ovarian
# EKVX NSCLC = test system: EKVX NSCLC
# SR leukemia = test system: SR leukemia
# MOLT-4 leukemia = test system: MOLT-4 leukemia
# UO-31 renal = test system: UO-31 renal
# U251 CNS = test system: U251 CNS
# SF-539 CNS = test system: SF-539 CNS
# BT-549 breast = test system: BT-549 breast
# M14 melanoma = test system: M14 melanoma
# NCI-H23 lung = test system: NCI-H23 lung
# HOP-92 NSCLC = test system: HOP-92 NSCLC
# MDA-MB-231 breast = test system: MDA-MB-231 breast
# SF-268 CNS = test system: SF-268 CNS
# NCI/ADR-RES ovarian = test system: NCI/ADR-RES ovarian
# T-47D breast = test system: T-47D breast
# OVCAR-5 ovarian = test system: OVCAR-5 ovarian
# SK-MEL-28 melanoma = test system: SK-MEL-28 melanoma
# A498 renal = test system: A498 renal
# TK-10 renal = test system: TK-10 renal
# NCI-H226 lung = test system: NCI-H226 lung
# HCT-116 colon = test system: HCT-116 colon
# HT29 colon = test system: HT29 colon
# HCC-2998 colon = test system: HCC-2998 colon
# UACC-257 melanoma = test system: UACC-257 melanoma
# SNB-19 CNS = test system: SNB-19 CNS
# MCF7 breast = test system: MCF7 breast
# ACHN renal = test system: ACHN renal
# SK-OV-3 ovarian = test system: SK-OV-3 ovarian
# SF-295 CNS = test system: SF-295 CNS
# SN12C renal = test system: SN12C renal
# RPMI-8226 leukemia = test system: RPMI-8226 leukemia
# SW-620 colon = test system: SW-620 colon
# SK-MEL-2 melanoma = test system: SK-MEL-2 melanoma
# K-562 leukemia = test system: K-562 leukemia
# PC-3 prostate = test system: PC-3 prostate
# KM12 colon = test system: KM12 colon
# MDA-MB-435 = test system: MDA-MB-435
# SK-MEL-5 melanoma = test system: SK-MEL-5 melanoma
# HCT-15 colon = test system: HCT-15 colon
# UACC-62 melanoma = test system: UACC-62 melanoma
smiles,measurement,setting,value
N#C/C(=C\Nc1ccccn1)C(=O)C1CC1,TGI,CAKI-1 renal,> 100 µM
same,TGI,SNB-75 CNS,> 100 µM
same,TGI,HOP-62 NSCLC,> 100 µM
same,TGI,HL-60(TB) leukemia,> 100 µM
same,TGI,RXF 393 renal,> 100 µM
same,TGI,COLO 205 colon,> 100 µM
same,TGI,OVCAR-3 ovarian,> 100 µM
same,TGI,786-0 renal,> 100 µM
same,TGI,A549 NSCLC,> 100 µM
same,TGI,DU-145 prostate,> 100 µM
same,TGI,HS 578T breast,> 100 µM
same,TGI,NCI-H460 lung,> 100 µM
same,TGI,IGROV1 ovarian,> 100 µM
same,TGI,LOX IMVI melanoma,> 100 µM
same,TGI,MALME-3M melanoma,> 100 µM
same,TGI,CCRF-CEM leukemia,> 100 µM
same,TGI,NCI-H522 lung,> 100 µM
same,TGI,OVCAR-8 ovarian,> 100 µM
same,TGI,MDA-N,> 100 µM
same,TGI,OVCAR-4 ovarian,> 100 µM
same,TGI,EKVX NSCLC,> 100 µM
same,TGI,SR leukemia,> 100 µM
same,TGI,MOLT-4 leukemia,> 100 µM
same,TGI,UO-31 renal,> 100 µM
same,TGI,U251 CNS,> 100 µM
same,TGI,SF-539 CNS,> 100 µM
same,TGI,BT-549 breast,> 100 µM
same,TGI,M14 melanoma,> 100 µM
same,TGI,NCI-H23 lung,> 100 µM
same,TGI,HOP-92 NSCLC,> 100 µM
same,TGI,MDA-MB-231 breast,> 100 µM
same,TGI,SF-268 CNS,> 100 µM
same,TGI,NCI/ADR-RES ovarian,> 100 µM
same,TGI,T-47D breast,> 100 µM
same,TGI,OVCAR-5 ovarian,> 100 µM
same,TGI,SK-MEL-28 melanoma,> 100 µM
same,TGI,A498 renal,> 100 µM
same,TGI,TK-10 renal,> 100 µM
same,TGI,NCI-H226 lung,> 100 µM
same,TGI,HCT-116 colon,> 100 µM
same,TGI,HT29 colon,> 100 µM
same,TGI,HCC-2998 colon,> 100 µM
same,TGI,UACC-257 melanoma,> 100 µM
same,TGI,SNB-19 CNS,> 100 µM
same,TGI,MCF7 breast,> 100 µM
same,TGI,ACHN renal,> 100 µM
same,TGI,SK-OV-3 ovarian,> 100 µM
same,TGI,SF-295 CNS,> 100 µM
same,TGI,SN12C renal,> 100 µM
same,TGI,RPMI-8226 leukemia,> 100 µM
same,TGI,SW-620 colon,> 100 µM
same,TGI,SK-MEL-2 melanoma,> 100 µM
same,TGI,K-562 leukemia,> 100 µM
same,TGI,PC-3 prostate,> 100 µM
same,TGI,KM12 colon,> 100 µM
same,TGI,MDA-MB-435,> 100 µM
same,TGI,SK-MEL-5 melanoma,> 100 µM
same,TGI,HCT-15 colon,> 100 µM
same,TGI,UACC-62 melanoma,> 100 µM
Cc1noc(C)c1-n1nc2ccc3nonc3c2n1,TGI,CAKI-1 renal,> 100 µM
same,TGI,SNB-75 CNS,> 82.4 µM
same,TGI,HOP-62 NSCLC,59.7 µM
same,TGI,HL-60(TB) leukemia,> 100 µM
same,TGI,RXF 393 renal,51.5 µM
same,TGI,COLO 205 colon,> 100 µM
same,TGI,OVCAR-3 ovarian,> 100 µM
same,TGI,786-0 renal,> 93 µM
same,TGI,A549 NSCLC,> 100 µM
same,TGI,DU-145 prostate,> 100 µM
same,TGI,HS 578T breast,> 88.1 µM
same,TGI,NCI-H460 lung,> 100 µM
same,TGI,IGROV1 ovarian,> 100 µM
same,TGI,LOX IMVI melanoma,> 100 µM
same,TGI,MALME-3M melanoma,> 100 µM
same,TGI,CCRF-CEM leukemia,> 100 µM
same,TGI,NCI-H522 lung,> 100 µM
same,TGI,OVCAR-8 ovarian,> 100 µM
same,TGI,MDA-N,> 100 µM
same,TGI,OVCAR-4 ovarian,> 100 µM
same,TGI,EKVX NSCLC,> 92.4 µM
same,TGI,SR leukemia,> 100 µM
same,TGI,MOLT-4 leukemia,> 100 µM
same,TGI,UO-31 renal,> 100 µM
same,TGI,U251 CNS,> 75.4 µM
same,TGI,SF-539 CNS,> 71.4 µM
same,TGI,BT-549 breast,> 100 µM
same,TGI,M14 melanoma,> 100 µM
same,TGI,NCI-H23 lung,> 100 µM
same,TGI,HOP-92 NSCLC,> 86.4 µM
same,TGI,MDA-MB-231 breast,> 100 µM
same,TGI,SF-268 CNS,> 100 µM
same,TGI,NCI/ADR-RES ovarian,> 100 µM
same,TGI,T-47D breast,> 100 µM
same,TGI,OVCAR-5 ovarian,> 100 µM
same,TGI,SK-MEL-28 melanoma,> 100 µM
same,TGI,A498 renal,66.8 µM
same,TGI,TK-10 renal,> 82 µM
same,TGI,NCI-H226 lung,> 100 µM
same,TGI,HCT-116 colon,> 100 µM
same,TGI,HT29 colon,> 100 µM
same,TGI,HCC-2998 colon,> 100 µM
same,TGI,UACC-257 melanoma,> 100 µM
same,TGI,SNB-19 CNS,> 76.4 µM
same,TGI,MCF7 breast,> 100 µM
same,TGI,ACHN renal,> 100 µM
same,TGI,SK-OV-3 ovarian,> 73.4 µM
same,TGI,SF-295 CNS,98.6 µM
same,TGI,SN12C renal,> 100 µM
same,TGI,RPMI-8226 leukemia,> 100 µM
same,TGI,SW-620 colon,> 100 µM
same,TGI,SK-MEL-2 melanoma,> 100 µM
same,TGI,K-562 leukemia,> 100 µM
same,TGI,PC-3 prostate,> 100 µM
same,TGI,KM12 colon,> 100 µM
same,TGI,MDA-MB-435,> 100 µM
same,TGI,SK-MEL-5 melanoma,> 100 µM
same,TGI,HCT-15 colon,> 100 µM
same,TGI,UACC-62 melanoma,> 100 µM
